Entries after “also recorded” stand apart in the source; their conditions may differ.

The nature of the data set: HPLC and MS determination of CoQ9 and CoQ10 in heart samples of supplemented guinea pigs. It counts as in vivo, guinea pig. To be noted: 5 mg/kg/day CoQ9 oral for 4 weeks, heart tissue. Here is the method: FIG. 3. HPLC chromatograms of a) Blank (mobile phase) b) CoQ9 standard solution c) CoQ10 standard solution and d) CoQ9 heart sample. The standards and sample solution were analyzed using an Agilent 1100 HPLC. The mobile phase was methanol-2-propanol-formic acid (45:55:0.05, v/v/v) containing methylamine at the concentration of 5 mmol/L. At a flow rate of 0.2 ml/min, 5 μl injections of the samples were done using the autosampler. The CoQ9 peak eluted at 2.39 minutes and the CoQ10 eluted at 2.86 minutes. However, the CoQ9 heart sample peak eluted at […], which is the same as CoQ10, thus indicating the presence of CoQ10 rather than CoQ9 in the sample.
FIG. 4. Mass Spectrometry (MS). (a) CoQ10 standard, b) CoQ9 standard, c) CoQ10 heart sample) Methylamine was used in the mobile phase to obtain the methyl ammonium adduct molecules of CoQ9 and CoQ10. The sensitivity of the adduct ions [M+CH3NH3]^+ was much higher than that of the protonated ions [M+H]^+ [7]. The MS spectra of both [M+CH3NH3][…] at m/z 826.5 for CoQ9 and m/z 894.6 for CoQ10 were observed. However, the CoQ9 heart sample indicated a mass peak at m/z 894.6, which matches the peak for CoQ10 and not CoQ9. Therefore, there was evidence of CoQ10 in the CoQ9 heart sample from the mass spec. data. This confirmed the hypothesis of bio-conversion of CoQ9 to CoQ10.
However, the retention time of CoQ9 heart sample indicated a retention time of 2.86 minutes and not 2.39 minutes (FIG. 3d). The retention time of the CoQ9 heart sample matched with that of CoQ10 rather than CoQ9. The qualitative analysis was done by identifying the compounds by their retention times. It was obvious that at this point CoQ9 was probably bio-converted to CoQ10. […]
Preparation of CoQ9 and CoQ10 heart samples: Animal preparation, drug pretreatment and isolated working heart preparation were done as described in example 1. […] The samples were analyzed immediately after preparation, and the remainder of the standard solutions was stored at 5° C. for future analysis. […]

Regarding `COC1=C(OC)C(=O)C(C/C=C(\C)CC/C=C(\C)CC/C=C(\C)CC/C=C(\C)CC/C=C(\C)CC/C=C(\C)CC/C=C(\C)CC/C=C(\C)CCC=C(C)C)=C(C)C1=O` [CoQ9, Coenzyme Q9], the “CoQ9 detected in the heart after CoQ9 supplementation” value is “no CoQ9 could be detected in the heart; also recorded: very small or no amount of CoQ9” and the “bioconversion of CoQ9 into CoQ10” value is given as “a substantial portion of CoQ9 had been bio-converted into CoQ10; also recorded: complete bioconversion of CoQ9 into CoQ10”. Also, where the note is “control chromatogram subtracted”, the “CoQ10 content in the heart after CoQ9 supplementation” value was “appreciable amount of CoQ10 in the heart tissue; also recorded: significantly high enrichment in the CoQ10 content”.
